Reference: patent US10350210B2, “EGFR and ALK dual inhibitor” (PRECEDO PHARMACEUTICALS CO., LTD, priority 2015, dated 2019)

Legend:
[1] = system: BaF3-TEL-EGFR-L858R; experiment: Cell growth (Cell Titer-Glo viability), BaF3-TEL-EGFR-L858R; format: cell-based; details: Mus musculus; BaF3-TEL-EGFR-L858R (EGFR L858R mutant kinase), 72 hrs
Protocol: By testing the effect of the novel kinase inhibitors on the proliferation of cancer cells, the selectivity of the compounds of the present disclosure in inhibiting the proliferation of cancer cells was further assessed. […]
The number of viable cells was determined quantitatively by a microplate reader using Cell Titer-Glo® (Promega, US) chemiluminescence cell viability assay kit.

[2] = system: A549; experiment: Effect on cell apoptosis (Western Blot, PARP and Caspase 3 cleavage), A549; format: cell-based, human; details: A549 (wild-type EGFR), 24 hours
Description: In order to confirm whether the death of cells is through apoptosis or necrosis after administration of drugs, non-small cell lung cancer cell A549 (expressing wild-type EGFR gene), non-small cell lung cancer cell line H1975 (expressing EGFR L858R/T790M double mutant gene), non-small cell lung cancer cell line H3255 (expressing EGFR L858R mutant gene), non-small cell lung cancer cell line H3122 (expressing ALK gene) cell line, and non-small cell lung cancer cell line PC-9 (expressing EGFR delE746_A750 mutant gene) were tested for effect of Compound 1 on cleavage of poly ADP-ribose polymerase PARP which is a DNA repair enzyme and Caspase 3, which were closely related to cell apoptosis. […] Western Blot was used to detect the effect of various concentrations of drugs at various time points on cleavage of poly ADP-ribose polymerase PARP which is a DNA repair enzyme and Caspase 3.

[3] = system: EGFR protein (wild-type EGFR, A549); experiment: Effect on signaling pathway in cells, A549; format: cell-based, human; details: 0.03-3 μM, 4 h
Description: In four cell lines (all purchased from ATCC) including non-small cell lung cancer cell line A549 (expressing wild-type EGFR gene), non-small cell lung cancer cell line H1975 (expressing EGFR L858R/T790M double mutant gene), non-small cell lung cancer cell line H3255 (expressing EGFR L858R mutant gene) and non-small cell lung cancer cell line PC-9 (expressing EGFR delE746_A750 mutant gene), the effect of Compound 1 on EGFR or other protein kinases related to signaling pathways of EGFR such as Stat3, AKT, ErK, eIF4E, 4EBP1, P70S6K was assessed by assaying a number of cellular biochemical and functional endpoints. […] The effect of Compound 1 on phosphorylation of Stat3Y705, AKT T308, AKT 5473, Erk T202/204, EGFR Y1068, P70S6K Thr389, eIF4E Ser209, Erk T202/204, 4EBP1 (Thr37/46) in these cell lines was assayed (FIGS. 1a to 1d).

[4] = system: BaF3-TEL-EGFR-T790M; experiment: Cell growth (Cell Titer-Glo viability), BaF3-TEL-EGFR-T790M; format: cell-based; details: Mus musculus; BaF3-TEL-EGFR-T790M (EGFR T790M mutant kinase), 72 hrs
Procedure, shortened: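 Cells are counted as viable by CellTiter-Glo chemiluminescence. Murine BaF3 lines depend on a stably transfected TEL-fused kinase after IL-3 withdrawal, and the NSCLC lines express mutant EGFR.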

GI50 [1]: < 3 nM
GI50 [4]: 32 nM
SMILES: C=CC(=O)Nc1cc(Nc2ncc(Cl)c(Nc3ccccc3S(=O)(=O)C(C)C)n2)c(OC)cc1N1CCN(CC)CC1 [Compound 1, N-(5-(5-chloro-4-(2-(isopropylsulfonyl)phenylamino)pyrimidin-2-ylamino)-2-(4-ethylpiperazin-1-yl)-4-methoxyphenyl)acrylamide]
cleavage of PARP or Caspase 3 (apoptosis) [2]: not observed
effect on phosphorylation of EGFR protein and of STAT3, S6K, AKT, ERK, eIF4E [3]: little effect
